From US10123985B2, “Therapeutic strategies for treating mitochondrial disorders” (Whitehead Institute for Biomedical Research, priority 2015, dated 2018)
“Also recorded” adds a separate entry of the source.

Key:
143B cells [1] = experiment: Proliferation assay of wild-type 143B cells treated with respiration inhibitors; format: cell-based; details: for Proliferation of rotenone treated 143B cells: asparagine
Description: (§1) 143B, A172, H1299, HeLa, U87 and MEF cells were cultured in Dulbecco's Modified Eagle's Medium (DMEM) (Gibco) supplemented with 10% fetal bovine serum (FBS) and penicillin-streptomycin. FL5.12 cells were cultured in the same medium and supplemented with 5 μg/mL recombinant mouse IL-3 (R&D Systems). 143B cybrid cell lines (WT Cybrid and CytB) were cultured in DMEM with 10% FBS, penicillin-streptomycin, and 0.1 mg/mL uridine. All cells incubated at 37° C. with 5% CO2.
(§2) Adherent cell lines growing in log phase were trypsinized, counted, and plated onto 6 well dishes (Corning) in 2 mL complete DMEM and incubated overnight. Initial seeding density was 2E4 cells per well for 143B, A172, H1299, HeLa, 143B WT Cybrid, and MEFs and 3E4 cells for 143B CytB and U87 cells. The following day, one plate of cells was counted to determine the initial cell count at the time of treatment. Cells were washed 2 times with 2 mL phosphate buffered saline (PBS) and 4 mL media premixed with the indicated treatments was added. FL5.12 cells, a suspension cell line, were washed 2 times in PBS and added directly to media containing the indicated treatments and 5 μg/mL recombinant mouse IL-3. Proliferation rate assay media was DMEM without pyruvate containing 10% dialyzed FBS, penicillin-streptomycin, and 0.1 mg/mL uridine, unless otherwise noted. For these cell lines at these seeding densities it was determined that for 4 days the cells maintained logarithmic proliferation (data not shown), therefore final cell counts were measured 4 days after treatment. Cells were counted using Cellometer Auto T4 Plus Cell Counter (Nexcelom Bioscience). Proliferation rate was determined using the following formula: Proliferation Rate (Doublings per day)=(log2(Final cell count (day 5)/Initial cell count (day 1))/4 (days)

143B cells [2] = experiment: Mitochondrial oxygen consumption (Seahorse XF24), cells treated with respiration inhibitors; format: cell-based; details: oligomycin with or without FCCP
Description: Oxygen consumption rates were determined on a Seahorse Bioscience Extracellular Flux Analyzer (XF24). Cells were plated in Seahorse Bioscience 24 well plates at 6E4 cells per well in 100 μL complete DMEM, allowed to attach for 1 hour, and 500 μl complete DMEM was added before overnight incubation. The following day cells were washed 2 times in assay media: DMEM without phenol red or pyruvate containing 0.5% dialyzed FBS and 0.1 mg/mL uridine at pH 7.4 and incubated in 500 μL of the same media for the assay.

143B cells [3] = experiment: Measurement of NAD+/NADH (NAD/NADH Glo) in 143B cells with respiration inhibitors; format: cell-based; details: oligomycin with or without FCCP
Description: NAD^+/NADH measurements were done using a modified version of manufacturer instructions of NAD/NADH Glo Assay (Promega). Cells were plated and treated as for proliferation assays and cell extracts were taken 6 hours after treatment. For extraction, cells were quickly washed 3 times in ice cold PBS, extracted in 100 μL ice cold lysis buffer (1% Dodecyltrimethylammonium bromide (DTAB) in 0.2 N NaOH diluted 1:1 with PBS), and immediately frozen at −80° C. To measure NADH, 20 μL of sample was moved to PCR tubes and incubated at 75° C. for 30 min, where the basic conditions will selectively degrade NAD^+. To measure NAD^+, 20 μL of the samples was moved to PCR tubes containing 20 μL lysis buffer and 20 μL 0.4 N HCl and incubated at 60° C. for 15 min, where acidic conditions will degrade NADH. Following incubations, samples were allowed to equilibrate to room temperature and then quenched by neutralizing with 20 μL 0.25 M Tris in 0.2 N HCl (NADH) or 20 μL 0.5 M Tris base (NAD^+). Manufacturer instructions were followed thereafter to measure NAD^+/NADH.

143B cells [4] = experiment: 13C asparagine labelling, GCMS of aspartate and released asparagine; format: cell-based
Description: FIG. 26. […] (A) Proliferation rate was measured after 4 days in DMEM without pyruvate and the indicated media conditions. Untr; Untreated. AKB; 1 mM alpha-ketobutyrate. Asp; 20 mM aspartate. Asn; asparagine, with the indicated concentrations. (B) GCMS measurement of intracellular levels of aspartate after 24 hours from the indicated treatment conditions. Aspartate levels are shown as the log2 of the measured total ion count (TIC). (C) The proliferation rate from FIG. 26A and the aspartate levels from FIG. 26B were graphed against one another to show a correlation between aspartate levels and proliferation rate. Grey triangles are the untreated conditions, blue squares are the AKB conditions, and green dots are the 1 mM ASN conditions. (D) GCMS measurement of intracellular aspartate levels after a 24-hour incubation in untreated media or media treated with 1 mM ^13C asparagine. The bars are split to show the fraction of aspartate that is unlabeled (M+0) and the fraction of aspartate that is labeled with 4 ^13C carbons (M+4). (E) GCMS measurement of unlabeled (M+0) asparagine released into the media (de novo produced asparagine) after a 24-hour incubation in untreated media or media treated with 1 mM ^13C asparagine.
The mechanism by which extracellular asparagine treatment can restore intracellular aspartate levels was also investigated. First, we treated 143B cells with 1 mM asparagine containing four ^13C carbon atoms. […] The small fraction containing labeled aspartate was likely from ^13C aspartate contamination in the ^13C asparagine added to the media. […] One plausible mechanism by which providing the cells with extracellular asparagine would decrease intracellular aspartate consumption is through product inhibition of asparagine synthetase (ASNS) activity. Decreased ASNS activity would decrease aspartate consumption and therefore increased aspartate levels. To test this, we measured the release of unlabeled asparagine in the media of untreated cells or cells treated with 1 mM ^13C asparagine. […]

143B cells [5] = experiment: Amino acid and TCA cycle metabolite GC-MS analysis, 143B cells; format: cell-based; details: for TCA metabolite, aspartate and glutamate pool sizes: wild-type 143B cells, respiration inhibitor alone
Description: 143B and 143B CytB cells were seeded at 400,000 cells/well in 6 well dishes overnight. The following day, cells were washed 2 times in PBS and media was changed to proliferation assay media with or without the indicated treatments. […] Soluble content was then dried under nitrogen gas. Polar samples were derivatized and measured as detailed in (Lewis). Relative metabolite abundances were determined by integrating ion peak area (Metran) and normalized to norvaline internal extraction standard.

143B CytB cells = experiment: Proliferation assay of respiration-incompetent 143B CytB cybrid cells; format: cell-based; details: media supplemented with the substance; no pyruvate unless tested, uridine present
Description: FL5.12 cells were cultured in the same medium and supplemented with 5 μg/mL recombinant mouse IL-3 (R&D Systems). […] All cells incubated at 37° C. with 5% CO2.
as §2, with “Initial seeding density was 2E4 cells per well for 143B, A172, H1299, HeLa, 143B WT Cybrid, and MEFs and 3E4 cells for 143B CytB and U87 cells.” left out, “For these cell lines at these seeding densities it was determined that for 4 days the cells maintained logarithmic proliferation (data not shown), therefore final cell counts were measured 4 days after treatment.” left out

Jurkat cells = experiment: Proliferation assay (Cell Titer Glo, 5 days) of wild type and knock-out Jurkat cells; format: cell-based, human; details: 5-day treatment
Description: sgRNAs (oligonucleotide sequences are indicated above) were cloned into lentiCRISPR-v1 linearized with BsmBI by Gibson Assembly (NEB). sgRNA expressing vector along with lentiviral packaging vectors Delta-VPR and CMV VSVG were transfected into HEK-293T cells using the XTremeGene 9 transfection reagent (Roche). Similarly, for overexpression cell lines, cDNA vectors along with retroviral packaging vectors gag-pol and CMV VSV-G were transfected into HEK-293T cells. Media was changed 24 hours after transfection.

[6] = tested on: A549 lung carcinoma xenografts; experiment: A549 xenograft study with metformin; format: in vivo, nude mice
Description: FIG. 27. In vivo mitochondrial inhibition inhibits cellular proliferation and decreases intracellular growth rate. (A) A549 xenografts in nude mice were treated with varying doses of the mitochondrial inhibitor, metformin, once a day by oral gavage at the indicated concentrations. LCMS measurement of (B) serum and (C) tumor metformin concentration for the indicated metformin treatment conditions. (D) GCMS measurement of intracellular aspartate levels in the tumors following 10 days of the indicated treatment. Aspartate levels are shown as aspartate total ion count (TIC) normalized to leucine TIC.
An in vivo correlation between mitochondrial inhibition and growth inhibition, and further, a correlation between the degree of growth inhibition and intracellular aspartate levels were shown in a xenograft study. A549 lung carcinoma cells were xenografted into nude mice, and the cells were allowed to grow until they formed a tumor 50 mm^3 in volume. When the tumors reached 50 mm^3, the mice were randomly sorted into three groups and treated once a day by oral gavage with vehicle or the mitochondrial inhibitor metformin (500 mg/kg or 1500 mg/kg).

[7] = tested on: A172, H1299, HeLa, U87, FL5.12, and MEF cell lines; experiment: Proliferation assay of a panel of cell lines treated with respiration inhibitors; format: cell-based; details: respiration inhibitor alone
Description: as §1, §2

[8] = tested on: Raji lymphoma and KMS-26 multiple myeloma cells; format: cell-based, human; details: 5-day treatment
Description: […]. Media was changed 24 hours after transfection.

[9] = 1 mM 13C asparagine, 24-hour incubation
[10] = metformin 500 mg/kg or 1500 mg/kg once a day by oral gavage

Compound: N#CC(C#N)=NNc1ccc(OC(F)(F)F)cc1 [FCCP, carbonyl cyanide-4-(trifluoromethoxy)phenylhydrazone, reference compound]
- Proliferation rate of oligomycin treated 143B cells (143B cells [1]; oligomycin with or without FCCP): increased proliferation of oligomycin treated cells
- Oxygen consumption of oligomycin treated cells (143B cells [2]): increased
- NAD+/NADH ratio of oligomycin treated 143B cells (143B cells [3]): increased

Compound: NC(=O)C[C@H](N)C(=O)O [^13C asparagine]
- Intracellular aspartate levels (143B cells [4]; [9]): did increase intracellular aspartate levels
- Labelling of intracellular aspartate pool (143B cells [4]; [9]): nearly all of the intracellular aspartate pool was unlabeled (M+0)

Compound: NC(=O)C[C@H](N)C(=O)O [asparagine]
- Proliferation of rotenone treated 143B cells (143B cells [1]; high doses of rotenone): not able to restore proliferation
- Proliferation of rotenone treated 143B cells (143B cells [1]; low doses of rotenone): sufficient to restore proliferation; also recorded: restores intracellular aspartate levels and proliferation in rotenone treated cells
- Restoration of intracellular aspartate compared to AKB (143B cells [5]; rotenone treated 143B cells, 1 mM asparagine): incomplete compared to AKB
- Intracellular aspartate levels (143B cells [5]; rotenone treated 143B cells, 24 hours, AKB or 1 mM asparagine): increased intracellular aspartate; also recorded: restores intracellular aspartate levels and proliferation in rotenone treated cells
- Release of unlabeled (de novo produced) asparagine into the media (143B cells [4]; 1 mM 13C asparagine versus untreated, 24 hours): produce less asparagine

Compound: COC(=O)CCC(=O)C(=O)OC [dimethyl α-ketoglutarate, reference compound]
- Proliferation rate of 143B CytB cells (143B CytB cells): able to restore some proliferation to 143B CytB cells, albeit at a much lower capacity than aspartate

Compound: Nc1nc2nc[nH]c2c(=O)[nH]1 [guanine, reference compound]
- Proliferation rate of 143B CytB cells (143B CytB cells): somewhat toxic

Compound: O=c1[nH]cnc2nc[nH]c12 [hypoxanthine, reference compound]
- Proliferation rate of 143B CytB cells (143B CytB cells): no effect on proliferation

Compound: CN(C)C(=N)N=C(N)N [metformin]
- Sensitivity of GOT1-null versus wild-type cells to other ETC inhibitors (Jurkat cells): substantially more sensitive; also recorded: GOT1-null cells die
- Normalized intracellular aspartate levels in tumors ([6]; 10 days of treatment, aspartate TIC normalized to leucine TIC): decrease in a dose-dependent manner
- Tumor concentration of metformin ([6]; escalating doses of metformin): increased tumor concentration of metformin
- Serum concentrations of metformin [6, 10]: at concentrations that would be therapeutically relevant and tolerable in humans
- Tumor growth [6, 10]: dose dependently inhibited tumor growth

Compound: CC[C@H]1/C=C/C=C/C[C@@H](C)[C@H](O)[C@@](C)(O)C(=O)[C@@H](C)[C@H](O)[C@@H](C)C(=O)[C@@H](C)[C@H](O)[C@@H](C)/C=C/C(=O)O[C@@H]2[C@H](C)[C@H](CC1)O[C@]1(CC[C@H](C)[C@H](C[C@@H](C)O)O1)[C@H]2C [oligomycin, reference compound]
- Proliferation of cell line panel [7]: blocked proliferation
- TCA metabolite, aspartate and glutamate pool sizes (143B cells [5]): decreases in TCA metabolites and aspartate, but not glutamate

Compound: C/C=C(\C)[C@H](O)[C@H](C)/C=C(C)/C=C/C/C(C)=C/Cc1nc(OC)c(OC)c(O)c1C [piericidin, reference compound]
- Sensitivity of GOT1-null versus wild-type cells to other ETC inhibitors (Jurkat cells): GOT1-null cells die; also recorded: substantially more sensitive
- Viability of GOT1-null KMS-26 and Raji cells with other mitochondrial toxins [8]: GOT1-null KMS-26 and Raji cells die

Compound: C=C(C)[C@H]1Cc2c(ccc3c2O[C@@H]2COc4cc(OC)c(OC)cc4[C@@H]2C3=O)O1 [rotenone, reference compound]
- Proliferation of cell line panel [7]: blocked proliferation
- TCA metabolite, aspartate and glutamate pool sizes (143B cells [5]): decreases in TCA metabolites and aspartate, but not glutamate

Compound: antimycin [reference compound]
- Proliferation of cell line panel [7]: blocked proliferation
- TCA metabolite, aspartate and glutamate pool sizes (143B cells [5]): decreases in TCA metabolites and aspartate, but not glutamate
- Sensitivity of GOT1-null versus wild-type cells to other ETC inhibitors (Jurkat cells): GOT1-null cells die; also recorded: substantially more sensitive
- Viability of GOT1-null KMS-26 and Raji cells with other mitochondrial toxins [8]: GOT1-null KMS-26 and Raji cells die
